In brackets after ≈: the same amount, converted by molar mass.
How the values were obtained:
Format in all cases: cell-based
C. Krusei = assay: In vitro antibacterial (antifungal) test, two-fold dilution MIC; conditions: Pichia kudriavzevii, RPMI 1640, culture 2-7 days
C. albicans = assay: as above; conditions: Candida albicans, read-out: MIC C. albicas
C. glabrata = assay: as above; conditions: Nakaseomyces glabratus, RPMI 1640, culture 2-7 days
C. neoformans = assay: as above; conditions: Cryptococcus neoformans, RPMI 1640, culture 2-7 days
C. parapsilosis = assay: as above; conditions: Lodderomyces parapsilosis, RPMI 1640, culture 2-7 days
C. tropicalis = assay: as above; conditions: Candida tropicalis, RPMI 1640, culture 2-7 days
E. floccosum = assay: as above; conditions: Epidermophyton floccosum, RPMI 1640, culture 2-7 days
[1] = system: Fusarium oxysporum vasinfectum; assay: as above; conditions: RPMI 1640, culture 2-7 days
M. gypseum = assay: as above; conditions: Nannizzia gypsea, RPMI 1640, culture 2-7 days
S. schenekn = assay: as above; conditions: RPMI 1640, culture 2-7 days
Setosphaeria turcica = assay: as above; conditions: Exserohilum turcicum, RPMI 1640, culture 2-7 days
Terchoderma = assay: as above; conditions: Trichoderma, RPMI 1640, culture 2-7 days
gibberella = assay: as above; conditions: RPMI 1640, culture 2-7 days
A375 = assay: In vitro anticancer MTT experiment; conditions: Homo sapiens, A-375, concentration 5 ug/ml, 48 h or 72 h, read-out: inhibition ratio A375
In short: (§1)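 Cells seeded (6000-7000/well) → 12 h at 37° C., 5% CO2 → compound 48 or 72 h → MTT 4 h → DMSO → A570. % inhibition vs untreated and medium-only wells, at 5 ug/ml.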

AS24391 = assay: In vitro anticancer MTT experiment; conditions: concentration 5 ug/ml, 48 h or 72 h, read-out: inhibition ratio AS24391
In short: as §1

B01092 = assay: In vitro anticancer MTT experiment; conditions: concentration 5 ug/ml, 48 h or 72 h, read-out: inhibition ratio B01092
In short: as §1

CRL-1435PC-3 = assay: In vitro anticancer MTT experiment; conditions: concentration 5 ug/ml, 48 h or 72 h, read-out: inhibition ratio CRL-1435PC-3
In short: as §1

CRL-1469PANC-1 = assay: In vitro anticancer MTT experiment; conditions: concentration 5 ug/ml, 48 h or 72 h, read-out: inhibition ratio CRL-1469PANC-1
In short: as §1

CRL-2233SNU-398 = assay: In vitro anticancer MTT experiment; conditions: concentration 5 ug/ml, 48 h or 72 h, read-out: inhibition ratio CRL-2233SNU-398
In short: as §1

HTB-131MDA-MB-453 = assay: In vitro anticancer MTT experiment; conditions: concentration 5 ug/ml, 48 h or 72 h, read-out: inhibition ratio HTB-131MDA-MB-453
In short: as §1

HTB-38HT-29 = assay: In vitro anticancer MTT experiment; conditions: concentration 5 ug/ml, 48 h or 72 h, read-out: inhibition ratio HTB-38HT-29
In short: as §1

HTB-94 = assay: In vitro anticancer MTT experiment; conditions: concentration 5 ug/ml, 48 h or 72 h, read-out: inhibition ratio HTB-94
In short: as §1

HTB-95637 = assay: In vitro anticancer MTT experiment; conditions: concentration 5 ug/ml, 48 h or 72 h, read-out: inhibition ratio HTB-95637
In short: as §1

L1210 = assay: In vitro anticancer MTT experiment; conditions: Mus musculus, concentration 5 ug/ml, 48 h or 72 h, read-out: inhibition ratio L1210
In short: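 Inhibition ratios were measured at a compound concentration of 5 ug/ml. Log-phase cells grown in RPMI 1640/10% fetal calf serum were treated for 48 h or 72 h, and viability was assessed by MTT reduction with absorbance read at 570 nm.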

L428 = assay: In vitro anticancer MTT experiment; conditions: Homo sapiens, L-428, concentration 5 ug/ml, 48 h or 72 h, read-out: inhibition ratio L428
In short: as §1

SGC7901 = assay: In vitro anticancer MTT experiment; conditions: Homo sapiens, SGC-7901, concentration 5 ug/ml, 48 h or 72 h, read-out: inhibition ratio SGC7901
In short: as §1

FTC 133 = assay: In vitro anticancer MTT experiment; conditions: Homo sapiens, concentration 5 ug/ml, 48 h or 72 h, read-out: inhibition ratio FTC 133
In short: as §1

A. niger = assay: In vitro antibacterial (antifungal) test, two-fold dilution MIC; conditions: Aspergillus niger, RPMI 1640, culture 2-7 days

| SMILES | MIC (C. Krusei) [µg/mL] | MIC (C. albicans) [µg/mL] | MIC (C. glabrata) [µg/mL] | MIC (C. neoformans) [µg/mL] | MIC (C. parapsilosis) [µg/mL] | MIC (C. tropicalis) [µg/mL] | MIC (E. floccosum) [µg/mL] | MIC [1] [µg/mL] | MIC (M. gypseum) [µg/mL] | MIC (S. schenekn) [µg/mL] | MIC (Setosphaeria turcica) [µg/mL] | MIC (gibberella) [µg/mL] | inhibition at 5 µg/mL (AS24391) [%] | inhibition at 5 µg/mL (B01092) [%] | inhibition at 5 µg/mL (CRL-1435PC-3) [%] | inhibition at 5 µg/mL (CRL-1469PANC-1) [%] | inhibition at 5 µg/mL (CRL-2233SNU-398) [%] | inhibition at 5 µg/mL (HTB-95637) [%] | inhibition at 5 µg/mL (L1210) [%] | inhibition at 5 µg/mL (SGC7901) [%] | other results |
| --- | --- | --- | --- | --- | --- | --- | --- | --- | --- | --- | --- | --- | --- | --- | --- | --- | --- | --- | --- | --- | --- |
| O=C1/C(=C\Cl)CSc2ccc(F)cc21 [Compound 22, (E)-3-(chloromethylene)-6-fluorothiochroman-4-one] | 16 (≈ 70 µM) | 4 (≈ 17.5 µM) | 8 (≈ 35 µM) | 16 (≈ 70 µM) | 16 (≈ 70 µM) | 32 (≈ 140 µM) | 16 (≈ 70 µM) | 16 (≈ 70 µM) | 16 (≈ 70 µM) | 8 (≈ 35 µM) | 8 (≈ 35 µM) | 4 (≈ 17.5 µM) | 43.5 | 43.6 | 30.5 | 33.3 | 49 | 36.9 | 86.7 | 60.7 | MIC (Terchoderma): 32 µg/mL (≈ 140 µM); inhibition at 5 µg/mL (A375): 56.7%; inhibition at 5 µg/mL (HTB-131MDA-MB-453): 55.9%; inhibition at 5 µg/mL (HTB-38HT-29): 47.8%; inhibition at 5 µg/mL (HTB-94): 51%; inhibition at 5 µg/mL (L428): 53.9% |
| O=C1/C(=C/Br)CSc2ccc(F)cc21 [Compound 11, (Z)-3-(bromomethylene)-6-fluorothiochroman-4-one] | 16 (≈ 58.6 µM) | 64 (≈ 234 µM) | 8 (≈ 29.3 µM) | 32 (≈ 117 µM) | 32 (≈ 117 µM) | 64 (≈ 234 µM) | 32 (≈ 117 µM) | 32 (≈ 117 µM) | 64 (≈ 234 µM) | 32 (≈ 117 µM) | 32 (≈ 117 µM) | 16 (≈ 58.6 µM) | 46.9 | 45.5 | 47.9 | 39.4 | 60.1 | 49.5 | 86 | 59 | MIC (Terchoderma): 16 µg/mL (≈ 58.6 µM); inhibition at 5 µg/mL (A375): 47%; inhibition at 5 µg/mL (FTC 133): 56.7%; inhibition at 5 µg/mL (HTB-131MDA-MB-453): 45.6%; inhibition at 5 µg/mL (HTB-38HT-29): 45.5%; inhibition at 5 µg/mL (HTB-94): 36.7%; inhibition at 5 µg/mL (L428): 50.3% |
| OC1/C(=C/Cl)SCc2ccccc21 (stereo not shown) [Compound 20, (Z)-3-(chloromethylene)isothiochroman-4-ol] | 32 (≈ 150 µM) | 16 (≈ 75.2 µM) | 8 (≈ 37.6 µM) | 16 (≈ 75.2 µM) | 8 (≈ 37.6 µM) | 32 (≈ 150 µM) | 16 (≈ 75.2 µM) | – | 16 (≈ 75.2 µM) | 32 (≈ 150 µM) | 8 (≈ 37.6 µM) | 16 (≈ 75.2 µM) | 49.8 | 46.9 | 45.5 | 34.5 | 40.4 | 56.2 | 80.3 | 45.9 | inhibition at 5 µg/mL (A375): 50.2%; inhibition at 5 µg/mL (FTC 133): 36.9%; inhibition at 5 µg/mL (HTB-131MDA-MB-453): 25.8%; inhibition at 5 µg/mL (HTB-38HT-29): 45.5%; inhibition at 5 µg/mL (HTB-94): 45.7%; inhibition at 5 µg/mL (L428): 43.3% |
| Cc1cc2c(cc1F)SC/C(=C\Cl)C2=O [Compound 6, (Z)-3-(chloromethylene)-7-fluoro-6-methylthiochroman-4-one] | 8 (≈ 33 µM) | 32 (≈ 132 µM) | 8 (≈ 33 µM) | 4 (≈ 16.5 µM) | 4 (≈ 16.5 µM) | 16 (≈ 65.9 µM) | 32 (≈ 132 µM) | 16 (≈ 65.9 µM) | 4 (≈ 16.5 µM) | 16 (≈ 65.9 µM) | 4 (≈ 16.5 µM) | 8 (≈ 33 µM) | 59.8 | 57.9 | 56.7 | 53.8 | 60.1 | 48 | 76.9 | 45.3 | MIC (Terchoderma): 16 µg/mL (≈ 65.9 µM); inhibition at 5 µg/mL (A375): 65.8%; inhibition at 5 µg/mL (FTC 133): 59.3%; inhibition at 5 µg/mL (HTB-131MDA-MB-453): 60.7%; inhibition at 5 µg/mL (HTB-38HT-29): 44.2%; inhibition at 5 µg/mL (HTB-94): 45.4% |
| Cc1ccc2c(c1)C(=O)CCS2 [Compound 1] | 32 (≈ 180 µM) | 64 (≈ 359 µM) | 64 (≈ 359 µM) | 64 (≈ 359 µM) | 64 (≈ 359 µM) | 32 (≈ 180 µM) | 32 (≈ 180 µM) | – | 64 (≈ 359 µM) | 32 (≈ 180 µM) | – | – | – | – | – | – | – | – | – | – | MIC (A. niger): 32 µg/mL (≈ 180 µM) |
| Cc1ccc2c(c1)C(=O)/C(=C\O)CS2 [Compound 2] | 32 (≈ 155 µM) | 32 (≈ 155 µM) | 32 (≈ 155 µM) | 32 (≈ 155 µM) | 64 (≈ 310 µM) | 32 (≈ 155 µM) | 32 (≈ 155 µM) | – | 32 (≈ 155 µM) | 16 (≈ 77.6 µM) | – | – | – | – | – | – | – | – | – | – | MIC (A. niger): 64 µg/mL (≈ 310 µM) |
| O=C1/C(=C\Cl)CSc2ccc(Cl)cc21 [Compound 21, (E)-6-chloro-3-(chloromethylene)thiochroman-4-one] | 8 (≈ 32.6 µM) | 8 (≈ 32.6 µM) | 8 (≈ 32.6 µM) | 4 (≈ 16.3 µM) | 8 (≈ 32.6 µM) | 16 (≈ 65.3 µM) | 16 (≈ 65.3 µM) | 32 (≈ 131 µM) | 32 (≈ 131 µM) | 16 (≈ 65.3 µM) | 32 (≈ 131 µM) | 8 (≈ 32.6 µM) | 60.3 | 35.9 | 54.6 | 63 | 46.7 | 54.3 | 78.4 | 50 | MIC (Terchoderma): 4 µg/mL (≈ 16.3 µM); inhibition at 5 µg/mL (A375): 56.9%; inhibition at 5 µg/mL (FTC 133): 55.9%; inhibition at 5 µg/mL (HTB-131MDA-MB-453): 55.6%; inhibition at 5 µg/mL (HTB-38HT-29): 54.3%; inhibition at 5 µg/mL (L428): 52.3% |
| Cc1ccc2c(c1)C(=O)/C(=C/Cl)CS2 [Compound 5, (Z)-3-(chloromethylene)-6-methylthiochroman-4-one] | 4 (≈ 17.8 µM) | 8 (≈ 35.6 µM) | 2 (≈ 8.9 µM) | 0.5 (≈ 2.23 µM) | 8 (≈ 35.6 µM) | 32 (≈ 142 µM) | – | 8 (≈ 35.6 µM) | 4 (≈ 17.8 µM) | 8 (≈ 35.6 µM) | 8 (≈ 35.6 µM) | 16 (≈ 71.2 µM) | 49.8 | 58 | 55.6 | 40.9 | 60.1 | 76.6 | 87.6 | 62.1 | MIC (Terchoderma): 32 µg/mL (≈ 142 µM); inhibition at 5 µg/mL (A375): 65.9%; inhibition at 5 µg/mL (FTC 133): 60.2%; inhibition at 5 µg/mL (L428): 46.8% |
| O=C1/C(=C/Br)CSc2ccc(Cl)cc21 [Compound 10, (Z)-3-(bromomethylene)-6-chlorothiochroman-4-one] | 16 (≈ 55.3 µM) | 64 (≈ 221 µM) | 64 (≈ 221 µM) | 4 (≈ 13.8 µM) | 8 (≈ 27.6 µM) | 32 (≈ 111 µM) | 64 (≈ 221 µM) | 64 (≈ 221 µM) | 64 (≈ 221 µM) | 64 (≈ 221 µM) | 32 (≈ 111 µM) | 32 (≈ 111 µM) | 56.7 | 69 | 46.6 | 45.1 | 45.6 | 40.8 | 84.4 | 56.5 | MIC (Terchoderma): 16 µg/mL (≈ 55.3 µM); inhibition at 5 µg/mL (FTC 133): 45.6%; inhibition at 5 µg/mL (HTB-131MDA-MB-453): 53.5%; inhibition at 5 µg/mL (HTB-38HT-29): 54.7%; inhibition at 5 µg/mL (HTB-94): 46.8%; inhibition at 5 µg/mL (L428): 50.6% |

From patent US20120035206A1, “PREPARATION AND APPLICATION OF NOVEL ANTIBACTERIAL AND ANTICANCER COMPOUNDS AND THEIR DERIVATIVES” (priority 2009, published 2012)
